Reference: US20230399373A1, “MOLECULAR DESIGNS OF GLUCOSE-RESPONSIVE AND GLUCOSE-CLEAVABLE INSULIN ANALOGUES” (THE TRUSTEES OF INDIANA UNIVERSITY, priority 2020, published 2023)

Columns and labels:
Assay type in all cases: cell-based
HepG2 cells = test: PCR assays of ligand-selective metabolic gene regulation (PEPCK, ChREBP, SREBP) in HepG2 cells; details: control studies
Experimental: Insulin-signaling in hepatocytes extends to metabolic transcriptional regulation as recapitulated in HepG2 cells. […] Control studies were undertaken in the absence of insulin analogs to assess potential confounding changes in metabolic gene expression on addition of 0 to 100 mM fructose or 0 to 100 mM glucose.

IR [1] = test: Western blot assays of fructose-dependent insulin signaling (IR autophosphorylation, p-AKT/AKT, p-FOXO1/FOXO1, p-GSK-3/GSK-3) in HepG2 cells; details: single hormone dose 50 nM
Experimental: Signal propagation was probed via a cytoplasmic kinase cascade and changes in metabolic gene expression in HepG2 cells. […] An overview of IR autophosphorylation (probed by anti-pTyr IR antibodies) and downstream phosphorylation of Ser-Thr protein kinase AKT (protein kinase B; ratio p-AKT/AKT), forkhead transcription factor 1 (p-FOXO1/FOXO1), and glycogen synthase kinase-3 (p-GSK-3/GSK-3) at a single hormone dose (50 nM) was provided by Western blot (WB; FIG. 4 D-F). […] The activity of FRI in the absence of fructose is low.

IR [2] = test: 96-well plate assay of dose-dependent and ligand-selective IR autophosphorylation
Experimental: Quantitative dose-dependent and ligand-selective IR autophosphorylation were evaluated in a 96-well plate assay (FIG. 5A). FRI triggered a robust signal on addition of 50 mM fructose whereas baseline activity in the absence of fructose was low.

In the case of insulin lispro [KP], the “fructose dependence of metabolic gene regulation” value (HepG2 cells) is reported as “No fructose dependence”, the “signaling by Western blot (IR autophosphorylation, p-AKT/AKT, p-FOXO1/FOXO1, p-GSK-3/GSK-3): dependence on fructose” value (IR [1]) is reported as “fructose-independent signaling” and the “IR autophosphorylation signal on addition of 50 mM fructose” value (IR [2]; 50 mM fructose) is reported as “high signaling activity”. For the same substance, the “effect of addition of 50 mM glucose on IR autophosphorylation activity” value (IR [2]; 50 mM glucose) was “did not influence” and the “IR autophosphorylation baseline activity in the absence of fructose” value (IR [2]; no fructose) was “high signaling activity”.
